Earlier results on one molecule are cited in patent EP2939710B1, “Active Mixtures” (Symrise AG, priority 2014, dated 2015).

The conditions of this data set: water (20° dH) at 20 °C, solid active agent.

Regarding `Nc1nc2c(ncn2COCCO)c(=O)[nH]1` [Acyclovir, 2-Amino-1,9-dihydro-9-((2-hydroxyethoxy)methyl)-6H-Purin-6-one], the solubility in water entry is on record as “less than 5 g/L”.
